Assay results reported in patent publication US9346787B2, “Piperidine compound or salt thereof” (TAIHO PHARMACEUTICAL CO., LTD., priority 2012, dated 2016).

Key:
[1] = Evaluation of oral absorbability (plasma concentration after oral administration); format: in vivo; conditions: 0.5% HPMC, BALB/cA mouse, plasma 0.5-6 hours
Protocol: The test compound was suspended or dissolved in 0.5% HPMC and orally administered to a BALB/cA mouse. The blood was drawn from the retro-orbital venous plexus 0.5, 1, 2, 4, and 6 hours after oral administration to obtain plasma. The concentration of the compound in the plasma thus obtained was measured by LCMS and the oral absorbability was evaluated.

[2] = tested on: human uterine cervical cancer cell line (Hela-Luc); assay: Evaluation of the anti-tumor effect (2), Hela-Luc subcutaneous transplant; format: in vivo, nude mouse; conditions: for BWC (body weight change) / RTV (relative tumor volume): Day 11, paclitaxel 20 mg/kg i.v. day 1; for potentiation of the anti-tumor effect of paclitaxel (in words): combination with paclitaxel versus paclitaxel-only group
[3] = tested on: human uterine cervical cancer cell line (Hela-Luc); assay: Evaluation of the anti-tumor effect (1), Hela-Luc subcutaneous transplant; conditions: for BWC (body weight change) / RTV (relative tumor volume): paclitaxel 30 mg/kg i.v. day 1, compound 60 mg/kg orally twice a day on day 2 and day 3; for potentiation of the anti-tumor effect of paclitaxel (in words): combination with paclitaxel versus paclitaxel-only group
From the text: The luciferase-introduced human uterine cervical cancer cell line (Hela-Luc) was subcutaneously transplanted into a nude mouse, and when the volume of the grafted tumor reached 100 to 200 mm^3, five mice in one group were grouped into the single drug administration group and combinational administration group by a randomized stratification method so as to achieve a uniform tumor volume in each group (day 1). […] In order to compare the anti-tumor effect brought about by drug administration, setting the tumor volume at the time of grouping at 1, the relative tumor volume (RTV) was determined in accordance with the following formula as a rate of tumor proliferation. RTV=(Tumor volume on the day of measurement of tumor volume)/(Tumor volume at the time of grouping)
Meanwhile, as the index of systemic toxicity caused by drug administration, the body weight change (BWC) was used. BWC (%)=([(Body weight of mouse on the day of body weight measurement)−(Body weight of mouse at the time of grouping)]/(Body weight of mouse at the time of grouping))×100

[4] = target: human aurora B (Homo sapiens (Human), UniProt Q96GD4); assay: Inhibitory activity on aurora B kinase; format: biochemical; conditions: ATP 40 μM, 60 minutes
Chain of human aurora B (Q96GD4 whole entry): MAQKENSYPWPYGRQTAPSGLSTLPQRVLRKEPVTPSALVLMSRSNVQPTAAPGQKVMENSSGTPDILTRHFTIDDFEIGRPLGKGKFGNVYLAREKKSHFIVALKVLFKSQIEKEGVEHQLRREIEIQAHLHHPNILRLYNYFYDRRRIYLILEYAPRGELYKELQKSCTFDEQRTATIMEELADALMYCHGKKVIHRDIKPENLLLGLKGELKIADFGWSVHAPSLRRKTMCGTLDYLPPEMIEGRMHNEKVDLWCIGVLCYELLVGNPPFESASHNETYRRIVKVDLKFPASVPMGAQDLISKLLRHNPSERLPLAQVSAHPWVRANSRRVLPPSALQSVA
Chain of human aurora B (Q9NQS7 803-918 partner): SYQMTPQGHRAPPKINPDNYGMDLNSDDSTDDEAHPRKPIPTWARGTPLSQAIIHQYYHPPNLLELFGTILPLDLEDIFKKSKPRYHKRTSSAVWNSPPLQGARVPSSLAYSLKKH
Protocol: (§1) The inhibitory activity of a test compound on aurora A and aurora B was measured in accordance with the following method.

[5] = target: human aurora A (Homo sapiens (Human), UniProt O14965); assay: Inhibitory activity on aurora A kinase (IMAP fluorescence polarization); format: biochemical
Chain of human aurora A (O14965 whole entry): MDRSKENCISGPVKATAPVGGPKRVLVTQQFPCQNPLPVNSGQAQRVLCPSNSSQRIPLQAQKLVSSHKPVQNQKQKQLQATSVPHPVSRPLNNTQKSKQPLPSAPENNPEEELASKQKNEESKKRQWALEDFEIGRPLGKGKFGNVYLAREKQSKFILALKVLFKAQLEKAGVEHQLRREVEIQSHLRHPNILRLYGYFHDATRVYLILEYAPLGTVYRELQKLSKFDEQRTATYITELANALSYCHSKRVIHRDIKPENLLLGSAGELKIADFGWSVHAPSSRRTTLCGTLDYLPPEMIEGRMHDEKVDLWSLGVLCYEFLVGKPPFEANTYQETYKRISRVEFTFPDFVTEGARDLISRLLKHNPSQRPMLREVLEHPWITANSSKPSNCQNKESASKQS
Protocol: as §1
The cDNA encoding human aurora A having a N-term fused histidine tag was inserted into an expression vector and this protein was expressed at a high level in the E. coli BL21-CodonPlus (DE3)-RIL strain. The E. coli were collected and solubilized, and histidine tag-fused human aurora A protein was extracted by adsorption to a nickel chelate column and then eluted with imidazole from the column. The active fraction was desalted with a desalting column, whereby a purified enzyme was obtained.

[6] = Compound 13 30 mg/kg orally twice a day on day 2 and day 3
[7] = Compound 22 100 mg/kg (single) or 60 mg/kg (combination) orally twice a day on day 2 and day 3

## Cc1cc(Nc2nc(CC3(C(=O)O)CCN(C(=O)c4cccc(Cl)c4F)CC3)ccc2F)n[nH]1 [Example 13, 1-(3-chloro-2-fluorobenzoyl)-4-((5-fluoro-6-(5-methyl-1H-pyrazol-3-ylamino)pyridin-2-yl)methyl)piperidine-4-carboxylic acid]
[1]
  oral absorbability (plasma concentration after oral administration): favorable oral absorbability
[2]; [6]
  BWC (body weight change): 6.0%
  RTV (relative tumor volume): 6.54
[2]
  potentiation of the anti-tumor effect of paclitaxel (in words): remarkably potentiated

## Cc1cc(Nc2nc(CC3(C(=O)O)CCN(C(=O)c4cccc(Cl)c4Cl)CC3)ccc2F)n[nH]1 [Example 1, 1-(2,3-dichlorobenzoyl)-4-((5-fluoro-6-(5-methyl-1H-pyrazol-3-ylamino)pyridin-2-yl)methyl)piperidine-4-carboxylic acid]
[1]
  oral absorbability (plasma concentration after oral administration): favorable oral absorbability
[3]; Day 23
  BWC (body weight change): 11.6%
  RTV (relative tumor volume): 10.47
[3]
  potentiation of the anti-tumor effect of paclitaxel (in words): remarkably potentiated

## O=C(c1cccc(Cl)c1F)N1CCC(Cc2cccc(Nc3cc[nH]n3)n2)(c2n[nH]c(=O)o2)CC1 [Comparative Example 1, 5-(1-(3-chloro-2-fluorobenzoyl)-4-((6-(1H-pyrazol-3-ylamino)pyridin-2-yl)methyl)piperidin-4-yl)-1,3,4-oxadiazol-2(3H)-one]
[3]; Day 23
  BWC (body weight change): 11.6%
  RTV (relative tumor volume): 15.23
[3]
  potentiation of the anti-tumor effect of paclitaxel (in words): did not clearly potentiate the anti-tumor effect

## CC(=O)O[C@H]1C(=O)[C@@]2(C)[C@H]([C@H](OC(=O)c3ccccc3)[C@]3(O)C[C@H](OC(=O)[C@H](O)[C@@H](NC(=O)c4ccccc4)c4ccccc4)C(C)=C1C3(C)C)[C@]1(OC(C)=O)CO[C@@H]1C[C@@H]2O [Paclitaxel, paclitaxel]
[2]; [6]
  BWC (body weight change): 5.4%
  RTV (relative tumor volume): 2.90
[2]; [7]
  BWC (body weight change): 7.8%
  RTV (relative tumor volume): 3.05
[3]; Day 23
  BWC (body weight change): 3.0%
  RTV (relative tumor volume): 0.69
[3]; Day 46
  BWC (body weight change): 11.6%
  RTV (relative tumor volume): 5.38
[3]; Day 46, ratio of individuals in which RTV does not exceed 1
  DCR (disease control rate): 40%

## Cc1cc(Nc2nc(CC3(c4noc(C)n4)CCN(C(=O)c4cccc(Cl)c4F)CC3)ccc2F)n[nH]1 [Example 22, (3-chloro-2-fluorophenyl)(4-((5-fluoro-6-(5-methyl-1H-pyrazol-3-ylamino)pyridin-2-yl)methyl)-4-(5-methyl-1,2,4-oxadiazol-3-yl)piperidin-1-yl)methanone]
[1]
  oral absorbability (plasma concentration after oral administration): favorable oral absorbability
[2]; [7]
  BWC (body weight change): 6.9%
  RTV (relative tumor volume): 4.66
[2]
  potentiation of the anti-tumor effect of paclitaxel (in words): remarkably potentiated

## Cc1cc(Nc2nc(CC3(C(=O)N4CCC4)CCN(C(=O)c4cccc(Cl)c4F)CC3)ccc2F)n[nH]1 [Example 19, azetidin-1-yl(1-(3-chloro-2-fluorobenzoyl)-4-((5-fluoro-6-(5-methyl-1H-pyrazol-3-ylamino)pyridin-2-yl)methyl)piperidin-4-yl)methanone]
[4]
  IC50: 680 nM

## COc1ccc(CC2(C(=O)O)CCN(C(=O)c3cccc(Cl)c3F)CC2)nc1Nc1cc(C)[nH]n1 [Example 11, 1-(3-chloro-2-fluorobenzoyl)-4-((5-methoxy-6-(5-methyl-1H-pyrazol-3-ylamino)pyridin-2-yl)methyl)piperidine-4-carboxylic acid]
[1]
  oral absorbability (plasma concentration after oral administration): favorable oral absorbability

## Cc1cc(Nc2nc(CC3(C(=O)O)CCN(C(=O)c4cccc(Cl)c4F)CC3)ccc2Cl)n[nH]1 [Example 12, 1-(3-chloro-2-fluorobenzoyl)-4-((5-chloro-6-(5-methyl-1H-pyrazol-3-ylamino)pyridin-2-yl)methyl)piperidine-4-carboxylic acid]
[1]
  oral absorbability (plasma concentration after oral administration): favorable oral absorbability

## Cc1cc(Nc2nc(CC3(C(=O)O)CCN(C(=O)c4cccc(Cl)c4F)CC3)ccc2C#N)n[nH]1 [Comparative Example 6, 1-(3-chloro-2-fluorobenzoyl)-4-((5-cyano-6-(5-methyl-H-pyrazol-3-ylamino)pyridin-2-yl)methyl)piperidine-4-carboxylic acid]
[5]; ATP 5 μM, 25° C., 50 minutes
  IC50: 220 nM
[5]; compared with aurora B and with MLN8237
  inhibitory activity on aurora A and selectivity for aurora A (in words): did not exhibit either inhibitory activity on aurora A or selectivity for aurora A
[4]
  IC50: 320 nM
